Biological target: T1, Solute carrier family 12 member 5 (Homo sapiens, UniProt Q9H2X9)
T1 sequence (Q9H2X9 whole entry): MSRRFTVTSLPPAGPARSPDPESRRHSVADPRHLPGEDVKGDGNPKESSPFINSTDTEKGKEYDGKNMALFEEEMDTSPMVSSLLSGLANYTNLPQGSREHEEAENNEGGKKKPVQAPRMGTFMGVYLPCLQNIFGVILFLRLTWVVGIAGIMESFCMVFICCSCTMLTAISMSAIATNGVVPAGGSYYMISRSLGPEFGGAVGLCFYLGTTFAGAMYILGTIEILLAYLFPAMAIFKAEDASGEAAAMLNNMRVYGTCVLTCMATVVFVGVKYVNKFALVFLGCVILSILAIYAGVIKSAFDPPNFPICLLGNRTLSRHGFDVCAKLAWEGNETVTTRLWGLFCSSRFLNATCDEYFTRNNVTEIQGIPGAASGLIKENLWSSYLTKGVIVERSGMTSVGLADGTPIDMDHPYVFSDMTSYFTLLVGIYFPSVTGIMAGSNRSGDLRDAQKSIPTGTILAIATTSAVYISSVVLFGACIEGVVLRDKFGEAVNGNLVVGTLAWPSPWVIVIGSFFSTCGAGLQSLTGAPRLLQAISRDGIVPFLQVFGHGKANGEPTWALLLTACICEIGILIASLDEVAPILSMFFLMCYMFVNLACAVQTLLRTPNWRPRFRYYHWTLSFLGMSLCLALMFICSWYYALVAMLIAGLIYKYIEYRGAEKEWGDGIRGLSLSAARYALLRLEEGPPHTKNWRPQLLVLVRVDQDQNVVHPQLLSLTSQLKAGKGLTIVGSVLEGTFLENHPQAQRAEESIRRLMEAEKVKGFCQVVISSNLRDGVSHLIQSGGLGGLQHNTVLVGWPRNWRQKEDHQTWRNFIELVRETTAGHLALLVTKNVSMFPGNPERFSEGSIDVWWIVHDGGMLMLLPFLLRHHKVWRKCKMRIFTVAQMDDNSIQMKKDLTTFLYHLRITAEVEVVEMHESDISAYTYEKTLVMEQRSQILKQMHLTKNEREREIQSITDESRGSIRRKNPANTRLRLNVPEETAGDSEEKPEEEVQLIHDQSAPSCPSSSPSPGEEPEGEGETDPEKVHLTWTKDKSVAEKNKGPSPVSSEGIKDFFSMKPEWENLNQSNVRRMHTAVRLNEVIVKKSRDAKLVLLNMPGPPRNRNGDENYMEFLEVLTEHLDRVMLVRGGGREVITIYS
Experiment: concentration-response of KCC2 transport modulators – cell-based, HEK293 KCC2, FluoZin-2 fluorescence, dose response (AID 1736)
Details: not given

SMILES | EC50
COc1ccc(S(=O)(=O)N(CCc2ccccc2)CC(=O)O)cc1Cl [2-[(3-chloranyl-4-methoxy-phenyl)sulfonyl-(2-phenylethyl)amino]ethanoic acid] | 7.63 µM
O=C(c1ccccc1SCc1ccc(F)cc1)N1CCOCC1 [MLS000712999] | 6.48 µM
Fc1ccc(CSc2nncn2NC/C=C/c2ccccc2)cc1 [3-[(4-fluorobenzyl)thio]-N-(3-phenyl-2-propen-1-yl)-4H-1,2,4-triazol-4-amine] | 30.2 µM
CSCCC(=O)N1CCCC(CNC(=O)c2ccc(-c3ccccc3)cc2)C1 (configuration not stated) [MLS000733867] | 7.78 µM
CC(=O)NCC1CCCN(c2nc3nonc3nc2N(C)Cc2ccccc2)C1 (configuration not stated) [MLS000731683] | 2.68 µM
O=C(OCC(=O)N1CCN(C(=O)c2ccco2)CC1)c1sc2ccccc2c1Cl [3-chloro-1-benzothiophene-2-carboxylic acid [2-[4-[2-furanyl(oxo)methyl]-1-piperazinyl]-2-oxoethyl] ester] | 0.478 µM
N#CC(C(=O)COc1ccccc1)c1nc2ccccc2s1 (configuration not stated) [(2Z)-2-(3H-1,3-benzothiazol-2-ylidene)-3-keto-4-phenoxy-butyronitrile] | 8.56 µM
S=C(NN=Cc1cccc2ccccc12)Nc1cccc(Cl)c1 [1-(3-chlorophenyl)-3-(1-naphthalenylmethylideneamino)thiourea] | 11 µM
O=C(CNC(=O)/C(=C/c1ccccc1)NC(=O)c1ccc(Br)cc1)OCc1ccccc1 [(phenylmethyl) 2-[[(Z)-2-[(4-bromophenyl)carbonylamino]-3-phenyl-prop-2-enoyl]amino]ethanoate] | 1.15 µM
S=C(NCc1cccnc1)Nc1ccc(Oc2ccccc2)cc1 [1-(4-phenoxyphenyl)-3-(3-pyridinylmethyl)thiourea] | 8.45 µM
O=C(Cc1csc(-c2ccccc2)n1)NCc1ccc(F)cc1 [MLS000336311] | 3.59 µM
Cc1ccc(S(=O)(=O)N2CCC(=O)N(C(COCc3ccccc3)Cc3ccccc3)CC2)cc1 (configuration not stated) [1-(4-methylphenyl)sulfonyl-4-(1-phenyl-3-phenylmethoxy-propan-2-yl)-1,4-diazepan-5-one] | 1.69 µM
CN(Cc1ccccc1)c1nc2nonc2nc1N1CCCC(CN2CCCC2=O)C1 (configuration not stated) [1-[(1-{6-[benzyl(methyl)amino][1,2,5]oxadiazolo[3,4-b]pyrazin-5-yl}piperidin-3-yl)methyl]pyrrolidin-2-one] | 2.43 µM
CCc1ccc(Nc2nnc(SCc3cc(=O)n4ccsc4n3)s2)cc1 [7-[[5-(4-ethylanilino)-1,3,4-thiadiazol-2-yl]sulfanylmethyl]-[1,3]thiazolo[3,2-a]pyrimidin-5-one] | 0.202 µM
CC(C)c1onc(C(=O)N2CCN(Cc3ccccc3)CC2)c1[N+](=O)[O-] [(4-benzylpiperazin-1-yl)-(4-nitro-5-propan-2-yl-1,2-oxazol-3-yl)methanone] | 0.34 µM
Cc1ccc(NC(=O)CCCSc2ccccc2)cc1S(=O)(=O)N1CCOCC1 [MLS000761060] | 6.79 µM
COc1cc(CC(C)N)c(OC)cc1I (configuration not stated) [[125I]2,5-dimethoxy-4-iodoamphetamine] | 290 µM
O=C(NCCc1cn2ccccc2n1)c1cc(COc2c(F)cccc2F)on1 [5-[(2,6-difluorophenoxy)methyl]-N-(2-imidazo[1,2-a]pyridin-2-ylethyl)-1,2-oxazole-3-carboxamide] | 78.9 µM
Sc1nnc(Cc2c[nH]c3ccccc23)o1 [5-(1H-indol-3-ylmethyl)-1,3,4-oxadiazole-2(3H)-thione] | 16.1 µM
Cc1cc([N+](=O)[O-])ccc1NCc1ccccc1 [2-methyl-4-nitro-N-(phenylmethyl)aniline] | 1.74 µM
O=C(CNC(=O)/C(=C\c1ccc(Br)cc1)NC(=O)c1ccccc1)OCc1ccccc1 [(phenylmethyl) 2-[[(E)-2-benzamido-3-(4-bromophenyl)prop-2-enoyl]amino]ethanoate] | 0.993 µM
Cc1[nH]c2ccccc2c1SCC(=O)N1CCN(c2ccccc2)CC1 [2-[(2-methyl-1H-indol-3-yl)thio]-1-(4-phenyl-1-piperazinyl)ethanone] | 4.24 µM

SMILES | EC50
CS(=O)(=O)N(CC(=O)N1CCN(c2ccc(F)cc2)CC1)c1ccc(F)c(Cl)c1 [MLS000531433] | 5.57 µM
O=C(CSc1nnc(-c2c[nH]c3ccccc23)o1)N1CCCCC1 [SMR000003748] | 1.81 µM
Cc1ccc(C(=O)Nc2nc(=O)n(C(=O)c3ccccc3Cl)s2)cc1 [MLS000540480] | 3.72 µM
CCCn1c(N)c(C(=O)CSc2nnc(Cc3ccccc3)o2)c(=O)n(C)c1=O [6-amino-3-methyl-5-[1-oxo-2-[[5-(phenylmethyl)-1,3,4-oxadiazol-2-yl]thio]ethyl]-1-propylpyrimidine-2,4-dione] | 0.017 µM
CCc1cc(C(=O)N2CCCC(CNC(=O)c3ccc(-c4ccccc4)cc3)C2)no1 (configuration not stated) [MLS000731765] | 3.2 µM
O=S(=O)(NCCc1ccccc1F)c1cccc(S(=O)(=O)N2CCOCC2)c1 [MLS000076090] | 1.65 µM
Cc1ccc2oc(-c3ccc(C)c(NC(=S)NC(=O)c4cccs4)c3)nc2c1 [1-[2-Methyl-5-(5-methyl-benzooxazol-2-yl)-phenyl]-3-(thiophene-2-carbonyl)-thiourea] | 2.05 µM
CN1/C(=C\C(=S)NC(=O)c2cccc(Br)c2)C(C)(C)c2ccccc21 [SMR000254682] | 5.4 µM
O=S(=O)(Nc1nc2ccccc2nc1N1CCN(c2ccccn2)CC1)c1ccc(Cl)cc1 [4-chloranyl-N-[3-(4-pyridin-2-ylpiperazin-1-yl)quinoxalin-2-yl]benzenesulfonamide] | 6.8 µM
Sc1nnc(CCc2ccc(Cl)cc2)o1 [5-[2-(4-chlorophenyl)ethyl]-1,3,4-oxadiazole-2-thiol] | 0.991 µM
O=C(OCC(=O)N1CCc2ccccc2C1)c1ccc(N2CCOCC2)c([N+](=O)[O-])c1 [4-(4-morpholinyl)-3-nitrobenzoic acid [2-(3,4-dihydro-1H-isoquinolin-2-yl)-2-oxoethyl] ester] | 5.37 µM
COC(=O)c1sccc1NC(=S)OC [3-(methoxycarbothioylamino)thiophene-2-carboxylic acid methyl ester] | 1.78 µM
CC(=NNC(=S)Nc1c(C)cccc1C)c1cc2ccccc2o1 [SMR000260555] | 4.46 µM
c1ccc(-c2csc(N=NCc3ccco3)n2)cc1 [(2-furfurylideneamino)-(4-phenylthiazol-2-yl)amine] | 15 µM
O=C(CCSCCc1ccccn1)Nc1ccc(Cc2ccncc2)cc1 [3-(2-pyridin-2-ylethylsulfanyl)-N-[4-(pyridin-4-ylmethyl)phenyl]propanamide] | 9.8 µM
CCCCCC(=O)Cc1cc(O)cc2c1C(=O)Oc1cc(O)c(C(=O)O)c(CCCCC)c1O2 [3,8-Dihydroxy-11-oxo-1-(2-oxo-heptyl)-6-pentyl-11H-dibenzo[b,e][1,4]dioxepine-7-carboxylic acid] | 4.02 µM
CC(C)NC(=S)NNC1=c2cc(C(C)C)ccc2=NC1=O [SMR000242097] | 5.13 µM
Cc1ccc(C(=O)O)cc1-c1ccc(C=C2NC(=O)N(c3ccccc3)C2=O)o1 [3-[5-[(E)-(2,5-dioxo-1-phenylimidazolidin-4-ylidene)methyl]furan-2-yl]-4-methylbenzoic acid] | 14.8 µM
CC(C)(C)NC(=O)C(c1ccncc1)N(Cc1ccco1)C(=O)c1ccc(-c2ccccc2)[nH]1 (configuration not stated) [N-[2-(tert-butylamino)-2-oxo-1-pyridin-4-ylethyl]-N-(furan-2-ylmethyl)-5-phenyl-1H-pyrrole-2-carboxamide] | 7.02 µM
O=C(CSc1ncccc1-c1nc2ccccc2[nH]1)N1CCN(c2ccccc2F)CC1 [MLS000033700] | 34.5 µM
O=C(Cn1nnc2c(cnn2-c2ccccc2)c1=O)N1CCN(c2ccccc2F)CC1 [3-[2-[4-(2-fluorophenyl)-1-piperazinyl]-2-oxoethyl]-7-phenyl-4-pyrazolo[3,4-d]triazinone] | 147 µM

Same assay, conditions: inactive by the depositor's call

SMILES | EC50
O=C(/C=C/c1ccccc1)Nc1scc(-c2ccccc2)c1C(=O)O [2-[[(E)-1-oxo-3-phenylprop-2-enyl]amino]-4-phenyl-3-thiophenecarboxylic acid] | 0.134 µM
COc1ccc(-c2nc(C[S+]([O-])CC(=O)N3CCc4ccccc4C3)c(C)o2)cc1 (configuration not stated) [1-(3,4-dihydro-1H-isoquinolin-2-yl)-2-[[2-(4-methoxyphenyl)-5-methyl-1,3-oxazol-4-yl]methylsulfinyl]ethanone] | 1410 µM
O=C(/C=C/c1cccc([N+](=O)[O-])c1)Nc1cccc(NC(=O)c2cccs2)c1 [MLS000574752] | 3.68 µM
CSc1sc(-c2nnc(S)n2C)c2c1C=CCC2 [4-methyl-3-[3-(methylthio)-6,7-dihydro-2-benzothiophen-1-yl]-1H-1,2,4-triazole-5-thione] | 15.7 µM

Reference: BindingDB's records for doi:10.7270/Q2TX3CSC (Vanderbilt Screening Center for GPCRs, Ion Channels and …, 2009)
